In patent US4857549A, “Antitumor compounds” (priority 1988, dated 1989):
Several values for one entry are separate records, joined by “and”; a condition that tells them apart may be missing. Equal entries are not always repeated. Where two headings read alike, the source gives them in different places.

How the values were obtained:
in vivo = conditions: mouse, ip
P388 leukemia = conditions: for ILS (maximum increase in lifespan): ip P388 leukemia mice, ip days 1-5, slash-separated figures are separate experiments
[1] = system: M5076 reticulum cell sarcoma; assay: ip M5076 reticulum cell sarcoma assay in mice; conditions: for MTD (maximally tolerated dose) / ILS max (maximum increase in lifespan): Table C, ip qD × 10; for MTD (maximally tolerated dose): B6D2F1 female mice; for ILS max (maximum increase in lifespan): ip M5076 sarcoma mice, slash = separate experiments, compound 2: seven experiments; for activity in the ip M5076 reticulum cell sarcoma assay: in words, based on Tables C and D
Protocol: Another chemosensitive tumor model is intraperitoneally (ip) implanted M5076 reticulum cell sarcoma in mice. In this system B6D2F1 female mice are inoculated with 0.5 ml of a 10 percent weight:volume (w:v) brei of M5076 prepared from pooled subcutaneous (sc) tumors excised at about 21 days from c57B1/6 donor mice. Drugs are administered ip. Daily treatment is begun 24 hours after implantation and is continued for ten days. The treatment regimen for M5076 is more prolonged than for P388 because of the slower growth rate and longer control survival time of the M5076 tumor.

[2] = Table B, B6D2F1 female mice, ip qD × 5
[3] = Table B, compound 2: 35 experiments

| Molecule | MTD (in vivo) | MTD (maximally tolerated dose) (P388 leukemia; [2]) | ILS (maximum increase in lifespan) (P388 leukemia; [3]) | other results |
| --- | --- | --- | --- | --- |
| CC(C(C)P(c1ccccc1)c1ccccc1)P(c1ccccc1)c1ccccc1 (single isomer, unassigned; (-)) [Compound 42] | 48 mg/kg |  |  |  |
| [Cl][Au][PH](C=C[PH]([Au][Cl])(c1ccccc1)c1ccccc1)(c1ccccc1)c1ccccc1 [Compound 8, μ-[Trans-1,2-Bis(Diphenylphosphino)Ethylene]Bis[Chlorogold(I)]] |  | 24 mg/kg | 33% and 36% |  |
| CC(C[PH]([Au][Cl])(c1ccccc1)c1ccccc1)[PH]([Au][Cl])(c1ccccc1)c1ccccc1 (stereo not drawn) [Compound 9, μ-[1,2-Bis(Diphenylphosphino)Propane]Bis[Chlorogold(I)]] |  | 6 mg/kg | 45% and 60% and 35% | MTD (maximally tolerated dose) [1]: 5 mg/kg; ILS max (maximum increase in lifespan) [1]: 98%; activity in the ip M5076 reticulum cell sarcoma assay [1]: good activity |
| C[C@H](C[PH]([Au][Cl])(c1ccccc1)c1ccccc1)[PH]([Au][Cl])(c1ccccc1)c1ccccc1 [Compound 10, μ-[(R)-(+)-1,2Bis(Diphenylphosphino)Propane]Bis[Chlorogold(I)]] |  | 6 mg/kg | 50% and 25% |  |
| CC(C(C)[PH]([Au][Cl])(c1ccccc1)c1ccccc1)[PH]([Au][Cl])(c1ccccc1)c1ccccc1 [Compound 11, μ-[(-) (2S,3S)-2,3-Bis(Diphenylphosphino)Butane]Bis[Chlorogold(I)]] |  |  |  | MTD (maximally tolerated dose) (P388 leukemia; mouse, in vivo, ip): 6 mg/kg |
| O=[N+]([O-])[O][Ag][PH](CC[PH]([Ag][O][N+](=O)[O-])(c1ccccc1)c1ccccc1)(c1ccccc1)c1ccccc1 [Compound 13, μ-[1,2-Bis(Diphenylphosphino)Ethane]Bis[Nitratosilver(I)]] |  | 6 mg/kg | 45% and 30% |  |
| [Cl][Cu][PH](CC[PH]([Cu][Cl])(c1ccccc1)c1ccccc1)(c1ccccc1)c1ccccc1 [Compound 14, μ-[1,2-Bis(Diphenylphosphino)Ethane]Bis[Chlorocopper(I)]] |  | 4 mg/kg | 65% and 79% |  |
| N#C[S][Au][PH](CC[PH]([Au][S]C#N)(c1ccccc1)c1ccccc1)(c1ccccc1)c1ccccc1 [Compound 16] |  | 6 mg/kg | 36% and 62% and 45% | MTD (maximally tolerated dose) [1]: 5 mg/kg; ILS max (maximum increase in lifespan) [1]: 52%; activity in the ip M5076 reticulum cell sarcoma assay [1]: good activity |
| CC(=O)[O][Au][PH](CC[PH]([Au][O]C(C)=O)(c1ccccc1)c1ccccc1)(c1ccccc1)c1ccccc1 [Compound 17, μ-[1,2-Bis(Diphenylphosphino)Ethane]Bis[Acetatogold(I)]] |  | 4 mg/kg | 73% and 64% | MTD (maximally tolerated dose) [1]: 4 mg/kg; ILS max (maximum increase in lifespan) [1]: 54% and 67%; activity in the ip M5076 reticulum cell sarcoma assay [1]: good activity |
| FC(F)(F)[S][Au][PH](CC[PH]([Au][S]C(F)(F)F)(c1ccccc1)c1ccccc1)(c1ccccc1)c1ccccc1 [Compound 18, μ-[1,2-Bis(diphenylphosphino)ethane]Bis[trifluoromethyl-thiogold(I)]] |  |  |  | ILS max (maximum increase in lifespan) [1]: 70% |
| CCOC(=S)[S][Au][PH](CC(O)[PH]([Au][S]C(=S)OCC)(c1ccccc1)c1ccccc1)(c1ccccc1)c1ccccc1 (stereo not drawn) [Compound 19, μ-[1,2-Bis(Diphenylphosphino)Ethanol]Bis[O-Ethyldithiocarbonatogold(I)]] |  | 6 mg/kg |  |  |
| CCOC(=O)C(N)C[S][Au][PH](CC[PH]([Au][S]CC(N)C(=O)OCC)(c1ccccc1)c1ccccc1)(c1ccccc1)c1ccccc1 (stereo not drawn) [Compound 20] |  | 6 mg/kg | 50% and 56% |  |
| CC[PH](CC)(CC[PH]([Au][Cl])(c1ccccc1)c1ccccc1)[Au][Cl] [Compound 21, μ-[1-Diethylphosphino-2-Diphenylphosphino-Ethane]bis-[Chlorogold(I)]] |  | 16 mg/kg | 30% |  |
| [Cl][Au][PH](CC[PH](Cc1ccccc1)(Cc1ccccc1)[Au][Cl])(Cc1ccccc1)Cc1ccccc1 [Compound 23, μ-[1,2-Bis(Dibenzylphosphino)Ethane]Bis[Chlorogold (I)]] |  | 4 mg/kg | 45% and 30% | MTD (maximally tolerated dose) [1]: 4 mg/kg; ILS max (maximum increase in lifespan) [1]: 40% |
| COc1ccc([PH](CC[PH]([Au][Cl])(c2ccc(OC)cc2)c2ccc(OC)cc2)([Au][Cl])c2ccc(OC)cc2)cc1 [Compound 24, μ-[1,2-Bis[Bis(4-methoxyphenyl)phosphino]ethanel]bis[chlorogold(I)]] |  | 8 mg/kg |  |  |
| Fc1ccc([PH](CC[PH]([Au][Cl])(c2ccc(F)cc2)c2ccc(F)cc2)([Au][Cl])c2ccc(F)cc2)cc1 [Compound 25, μ-[1,2-Bis[Bis(4-Fluorophenyl)Phosphino]Ethane]Bis-[Chlorogold (I)]] |  | 8 mg/kg | 80% and 75% |  |

| Molecule | MTD (in vivo) | MTD (maximally tolerated dose) (P388 leukemia; [2]) | ILS (maximum increase in lifespan) (P388 leukemia; [3]) | other results |
| --- | --- | --- | --- | --- |
| Fc1cccc([PH](CC[PH]([Au][Cl])(c2cccc(F)c2)c2cccc(F)c2)([Au][Cl])c2cccc(F)c2)c1 [Compound 26, μ-[1,2-Bis[Bis(3-Fluorophenyl)Phosphino]Ethane]Bis [Chlorogold (I)]] |  | 8 mg/kg | 60% and 55% |  |
| Fc1c(F)c(F)c([PH](CC[PH]([Au][Cl])(c2c(F)c(F)c(F)c(F)c2F)c2c(F)c(F)c(F)c(F)c2F)([Au][Cl])c2c(F)c(F)c(F)c(F)c2F)c(F)c1F [Compound 27, μ-[1,2-Bis[bis(2,3,4,5,6-pentafluorophenyl)phosphine]ethane]-bis[chlorogold(I)]] |  | 16 mg/kg | 30% and 25% |  |
| FC(F)(F)c1ccc([PH](CC[PH]([Au][Cl])(c2ccc(C(F)(F)F)cc2)c2ccc(C(F)(F)F)cc2)([Au][Cl])c2ccc(C(F)(F)F)cc2)cc1 [Compound 29] |  | 8 mg/kg | 37% and 44% |  |
| CSc1ccc([PH](CC[PH]([Au][Cl])(c2ccc(SC)cc2)c2ccc(SC)cc2)([Au][Cl])c2ccc(SC)cc2)cc1 [Compound 30, μ-[1,2-Bis[Bis(4-Methylthiophenyl)Phosphino]ethane]-Bis[chlorogold(I)]] |  | 8 mg/kg | 37% and 65% |  |
| [2H]c1c([2H])c([2H])c([PH](CC[PH]([Au][Cl])(c2c([2H])c([2H])c([2H])c([2H])c2[2H])c2c([2H])c([2H])c([2H])c([2H])c2[2H])([Au][Cl])c2c([2H])c([2H])c([2H])c([2H])c2[2H])c([2H])c1[2H] [Compound 31, μ-[1,2-Bis[di(phenyl-d5)phosphino]ethane]bis-[chlorogold(I)]] |  | 6 mg/kg | 40% and 65% |  |
| c1ccc(P(CCCCP(c2ccccc2)c2ccccc2)c2ccccc2)cc1 [Compound 38, Bis(1,4-diphenylphosphino)butane] | 28 mg/kg |  |  |  |
| c1ccc(P(CCCCCP(c2ccccc2)c2ccccc2)c2ccccc2)cc1 [Compound 39, Bis (1,5-diphenylphosphino)pentane] | 8 mg/kg |  |  |  |
| C(=C\P(c1ccccc1)c1ccccc1)/P(c1ccccc1)c1ccccc1 [Compound 41, Trans-bis(1,2-diphenylphosphino)ethylene] | 128 mg/kg |  |  |  |
| C1CCC(P(CCP(C2CCCCC2)C2CCCCC2)C2CCCCC2)CC1 [Compound 44, 1,2-bis(dicyclohexylphosphino)ethane] | 32 mg/kg |  |  |  |
| Fc1ccc(P(CCP(c2ccc(F)cc2)c2ccc(F)cc2)c2ccc(F)cc2)cc1 [Compound 45, 1,2-ethanediyl-bis[bis(4-fluorophenyl)phosphine]] | 8 mg/kg |  |  |  |
| Fc1cccc(P(CCP(c2cccc(F)c2)c2cccc(F)c2)c2cccc(F)c2)c1 [Compound 46, 1,2-Ethanediyl-bis[bis(3-fluorophenyl)phosphine]] | 32 mg/kg |  |  |  |
| CSc1ccccc1P(CCP(c1ccccc1SC)c1ccccc1SC)c1ccccc1SC [Compound 47, 1,2-ethanediyl-bis[bis(2-methylthiophenyl)phosphine]] | 64 mg/kg |  |  |  |
| CSc1ccc(P(CCP(c2ccc(SC)cc2)c2ccc(SC)cc2)c2ccc(SC)cc2)cc1 [Compound 48, 1,2-Ethanediyl-Bis[Bis(4-methylthiophenyl)phosphine]] | 32 mg/kg |  |  |  |
| CCP(CC)CCP(CC)CC [Compound 49] | 64 mg/kg |  |  |  |
| CCP(CC)CCP(CC)CC [Compound 50] |  |  |  | MTD (maximally tolerated dose) (P388 leukemia; Table BI, B6D2F1 female mice, ip qD × 5): 128 mg/kg; ILS (maximum increase in lifespan) (P388 leukemia; Table BI, compound 33: 41 experiments): 55% |
| μ-[1,2-Bis[Bis(2-Methylthiophenyl)Phosphino]Ethane]Bis[Chlorogold(I)] [Compound 28] |  | 8 mg/kg |  |  |
